Publication PMC8333053, “Synthesis and biological screening of new thiadiazolopyrimidine-based polycyclic compounds” (Scientific Reports, 2021)
≈ marks a conversion by molar mass, not a printed value.

Key:
[1] = test system: Pseudomonas aeruginosa ATCC 29260; assay: Antibacterial MIC, two-fold serial dilution; assay type: cell-based; conditions: ATCC29260, Gram −ve bacteria, LB broth, 37°C, 24 h, visual (no turbidity), read-out: MIC P. aeruginosa
Description: (§1) The antimicrobial activity of the synthesized thiadiazolopyrimidine compounds was studied toward diverse pathogenic strains, such as gram-positive bacteria (Staphylococcus aureus ATCC 29213 and Bacillus cereus UW85), gram-negative bacteria (Escherichia coli ATCC 12435 and Pseudomonas aeruginosa ATCC 29260), and fungi (Candida albicans and Aspergillus fumigatus 293). The assessment was performed through the two-fold dilution technique using Ampicillin (antibacterial) and Fluconazole (antifungal) as the reference drugs[28],[29]. The minimal inhibitory concentration (MICs, µg/mL) of the synthesized derivatives for prohibiting microbial growth was determined through the visual detection (no turbidity) technique.
(§2) The synthesized thiadiazolopyrimidine-based compounds were evaluated and adopted for antibacterial and antifungal effectiveness using the approved procedure[38],[39].
(§3) Minimal inhibitory concentrations (MICs) were determined by serial dilution technique using 96-multiwell microtiter plates. The investigated compounds were dissolved in DMSO 100% to prepare stock solutions of 5000 µg/mL. Two-fold serial dilutions of the dissolved compounds were performed in LB broth providing eight different concentrations (1250, 625, 312.5, 156, 78, 39, 19.5 µg/mL). Overnight cultures of microorganisms were diluted to 1 ×10^6 CFU/mL in LB broth, and 20 mL of the diluted cultures were added to the test solutions (50 mL) in the wells (one well per concentration per bacterial strain). The plates were incubated at 37°C for 24 h. MIC was detected visually as the least concentration inhibiting bacterial growth (no turbidity) and the activity of the tested compounds was estimated in comparison to ampicillin.

[2] = test system: Escherichia coli ATCC 12435; assay: Antibacterial MIC, two-fold serial dilution; assay type: cell-based; conditions: ATCC12435, Gram −ve bacteria, LB broth, 37°C, 24 h, visual (no turbidity)
Description: as §1, §2, §3

[3] = test system: Staphylococcus aureus ATCC 29213; assay: Antibacterial MIC, two-fold serial dilution; assay type: cell-based; conditions: ATCC29213, Gram +ve bacteria, LB broth, 37°C, 24 h, visual (no turbidity), read-out: MIC S. aureus
Description: as §1, §2, §3

Bacillus cereus UW85 = assay: Antibacterial MIC, two-fold serial dilution; assay type: cell-based; conditions: Gram +ve bacteria, LB broth, 37°C, 24 h, visual (no turbidity), read-out: MIC B. cereus
Description: as §1, §2, §3

[4] = MTT cytotoxicity assay on normal cells; assay type: cell-based; conditions: human, WI38 normal fibroblast cells
Description: (§4) The cytotoxicity of the prepared tri-and tetra-cyclic thiadiazolopyrimidine compounds were examined toward various cancer cell lines, such as liver and breast cancer (MCF-7), prostate cancer (PC3), laryngeal carcinoma (Hep-2), carcinoma (HepG2), and standard normal fibroblast cells (WI38) using the MTT assay[33] at the National Research Centre (Egypt). The cytotoxicity (Table 3) toward 50% inhibition of the cell viability (IC50 values) was assessed using 5-fluorouracil (5-Fu) as the standard anticancer drug.
(§5) The synthesized compounds were subjected to the MTT cytotoxicity assay on the basis of the cited literature.
(§6) MTT cytotoxicity assay: The technical method of MTT assay depends on the reduction of yellow 3-(4,5-methyl-2-thiazolyl)-2,5-diphenyl-2H-tetrazolium bromide (MTT) into purple formazan product, mainly by mitochondrial reductase activity inside the living cells. The cells used in cytotoxicity assay were cultured in RPMI 1640 medium supplemented with 10% fetal calf serum. Cells suspended in the medium (2×10^4 cells/mL) were plated in 96-well culture plates and incubated at 37 °C in a 5% CO2 incubator for 12 hours. The tested sample (2 μL) was added to the cells (2×10^4) in 96-well plates and cultured at 37 °C for 3 days. The cultured cells were mixed with 20 μL of MTT solution and incubated for 4 hours at 37 °C. The supernatant was carefully removed from each well, the formazan crystals were dissolved after addition of DMSO (100 μL) for each well to form the cellular reduction of MTT. After mixing with a mechanical plate mixer, the absorbance of each well was measured by a microplate reader using a test wavelength of 570 nm. The results were expressed as the IC50 values, which inducing 50% inhibition of cell growth of the treated cells when compared to the growth of control cells.

DNA = assay: Bleomycin-dependent DNA damage; assay type: biochemical; conditions: test sample 0.1 mg/mL, λ = 532 nm; mean of three replicates ± SD; ascorbic acid 0.24 mM
From the text: Bleomycin-dependent DNA damage. The prepared polycyclic thiadiazolopyrimidine-based compounds were examined through the bleomycin-dependant DNA damage, and the results were compared to that of ascorbic acid as a positive control. The obtained data reflected the ability of these derivatives to protect the DNA from damage. The capability of compounds 16a–b and 17a–b to manifest the best protective effect against DNA damage was indicated by the corresponding absorbance values ranging from 0.031 to 0.053 (Table 4)[35],[36].
Bleomycin-dependent DNA damage experiment: To a mixture of 0.5 mg / mL of DNA, 5 mM magnesium chloride, 50 mM ferric chloride and 0.05 mg / mL bleomycin sulfate was prepared. The test sample was prepared at a concentration of 0.1 mg / mL and added to the mixture. After incubation of the mixture for one hour at 37 °C, 0.05 mL of EDTA (0.1 M) was added to terminate the reaction. In the next step, 0.5 mL of TBA (1% w / v) and 0.5 mL of HCl (25% v / v) were added for colour development and the mixture was heated for 10 minutes at 80 °C. The mixture was centrifuged and the absorbance expressed, the amount of damage to the DNA was measured at λ = 532 nm. L-Ascorbic acid (0.24 mM) was used as a positive control.

PC3 = assay: MTT cytotoxicity assay; assay type: cell-based; conditions: Homo sapiens, PC-3, 72 h, 3 days
Description: as §4, §5, §6

MCF-7 = assay: MTT cytotoxicity assay; assay type: cell-based; conditions: Homo sapiens, MCF7, 72 h, 3 days
Description: as §4, §5, §6

Hep-2 = assay: MTT cytotoxicity assay; assay type: cell-based; conditions: Homo sapiens, HEp-2, 72 h, 3 days
Description: as §4, §5, §6

HepG2 = assay: MTT cytotoxicity assay; assay type: cell-based; conditions: Homo sapiens, HepG2, 72 h, 3 days
Description: as §4, §5, §6

Compound	MIC [1] [µg/mL]	MIC [2] [µg/mL]	MIC [3] [µg/mL]	MIC (Bacillus cereus UW85) [µg/mL]	IC50 at 3 days [4] [µM]	Absorbance (bleomycin-dependent DNA damage) (DNA)	IC50 (PC3) [µM]	IC50 (MCF-7) [µM]	IC50 (Hep-2) [µM]	IC50 (HepG2) [µM]
CC(=O)C1=C(C)OC(N)=C2C(=O)N=C3SC=NN3C12 (stereo not shown) [Compound 8a, 9-Acetyl-6-amino-8-methyl-5H,9aH-pyrano[3,4-e][1,3,4]thiadiazolo[3,2-a]pyrimidin-5-one]	1250 (≈ 4.49 mM)	1250 (≈ 4.49 mM)	312 (≈ 1.12 mM)	625 (≈ 2.25 mM)	27.5 ± 0.6	0.078 ± 0.13	34.4 ± 0.64	33.42 ± 0.23	22.61 ± 0.21	37.12 ± 0.23
CC1=C(C(=O)c2ccccc2)C2C(=C(N)O1)C(=O)N=C1SC=NN12 (stereo not shown) [Compound 8b, 6-Amino-9-benzoyl-8-methyl-5H,9aH-pyrano[3,4-e][1,3,4]thiadiazolo[3,2-a]pyrimidin-5-one]	312 (≈ 0.918 mM)	1250 (≈ 3.67 mM)	156 (≈ 0.458 mM)	312 (≈ 0.918 mM)	42.8 ± 1.06	0.066 ± 0.05	30.6 ± 0.57	14.7 ± 0.16	14.7 ± 0.43	21.62 ± 0.14
Cc1cc2nc3c(c(N)n2n1)c(=O)nc1scnn13 [Compound 13, 6-Amino-9-methyl-5H-pyrazolo[1′,5′:1,2]pyrimido[5,4-e][1,3,4]thiadiazolo[3,2-a]pyrimidin-5-one]	> 1250	1250 (≈ 4.57 mM)	1250 (≈ 4.57 mM)	> 1250	44.4 ± 1.24	0.128 ± 0.11	35.6 ± 0.88	57.6 ± 1.4	30.2 ± 0.59	28.6 ± 0.41
N#Cc1cn2ncsc2nc1=O [Compound 3, 6-cyano-7-oxo-7H-[1,3,4]thiadiazolo[3,2-a]pyrimidine]	> 1250	> 1250	1250 (≈ 7.02 mM)	> 1250	7.82 ± 1.33	0.281 ± 0.22	92.8 ± 3.48	78 ± 1.37	87.5 ± 2.35	82.3 ± 2.19
Nc1nn(-c2ccccc2)c2c1c(=O)nc1scnn12 [Compound 5, 3-Amino-1-phenylpyrazolo[4,3-e][1,3,4]thiadiazolo[3,2-a]pyrimidin-4(1H)-one]	1250 (≈ 4.4 mM)	1250 (≈ 4.4 mM)	625 (≈ 2.2 mM)	625 (≈ 2.2 mM)	10.9 ± 0.83	0.146 ± 0.16	61.8 ± 1.68	54.8 ± 1.48	61.2 ± 1.51	19.2 ± 0.52
N#Cc1c(N)nc(N)c2c(=O)nc3scnn3c12 [Compound 6, 6,8-Diamino-9-cyano-5-oxo-5H-pyrido[3,4-e][1,3,4]thiadiazolo[3,2-a]pyrimidine]	1250 (≈ 4.82 mM)	> 1250	> 1250	1250 (≈ 4.82 mM)	14.1 ± 0.36	0.135 ± 0.14	66.3 ± 2.49	49.6 ± 1.25	57.6 ± 1.72	62.2 ± 1.07
CC1=C(C#N)C2C(=C(N)O1)C(=O)N=C1SC=NN12 (stereo not shown) [Compound 9a, 6-Amino-9-cyano-8-methyl-5-oxo-5H,9aH-pyrano[3,4-e][1,3,4]thiadiazolo[3,2-a]pyrimidine]	625 (≈ 2.39 mM)	625 (≈ 2.39 mM)	312 (≈ 1.2 mM)	312 (≈ 1.2 mM)	36.12 ± 0.28	0.064 ± 0.06	46.4 ± 1.07	22.7 ± 0.29	20 ± 0.24	33.2 ± 0.36
CCOC(=O)c1c(N)nc(N)c2c(=O)nc3scnn3c12 [Compound 7, Ethyl 6,8-diamino-5-oxo-5H-pyrido[3,4-e][1,3,4]thiadiazolo[3,2-a]pyrimidine-9-carboxylate]	1250 (≈ 4.08 mM)	625 (≈ 2.04 mM)	1250 (≈ 4.08 mM)	1250 (≈ 4.08 mM)	43.8 ± 0.52	0.132 ± 0.19	61.8 ± 1.35	39.8 ± 0.68	34.2 ± 0.93	36.73 ± 0.17
Cc1ccc(N=Nc2c(O)nn3c(N)c4c(=O)nc5scnn5c4nc23)cc1 [Compound 17a, 6-Amino-9-hydroxy-10-(4-methylphenylazo)-5H-pyrazolo[1′,5′:1,2]pyrimido[5,4-e][1,3,4]thiadiazolo[3,2-a]pyrimidin-5-one]	156 (≈ 0.397 mM)	156 (≈ 0.397 mM)	625 (≈ 1.59 mM)	625 (≈ 1.59 mM)	57.9 ± 1.18	0.053 ± 0.05	39.4 ± 2.01	9.36 ± 0.23	29.58 ± 0.15	38.27 ± 0.17
Nc1c2c(=O)nc3scnn3c2nc2nnnn12 [Compound 11, 6-Amino-5H-[1,3,4]thiadiazolo[2′,3′:2,3]pyrimido[4,5-d]tetrazolo[1,5-a]pyrimidin-5-one]	1250 (≈ 4.79 mM)	> 1250	312 (≈ 1.2 mM)	1250 (≈ 4.79 mM)	20.2 ± 0.39	0.113 ± 0.16	38.1 ± 0.49	31.8 ± 0.67	38.8 ± 0.74	42.2 ± 1.17
